Experimental data as given in patent US9738932B2, “Biomarkers for cardiovascular side-effects induced by cox-2 inhibitory compounds” (FIRALIS SAS, priority 2005, dated 2017).

System: mRNA expression in cardiovascular tissues
Assay: Affymetrix GeneChip mRNA expression profiling of monkey tissues (iliac vein, pulmonary vein, aorta, carotid artery, heart) after two-week oral-gavage treatment
Details: iliac vein
[1] = group average (Vioxx without A60055)
[2] = group avg, Vioxx without A60055

Cc1ccc(Nc2c(F)cccc2Cl)c(CC(=O)O)c1 [COX189, Lumiracoxib]
ACE (209749_s_at) mRNA expression, Avg fold changes vs control [1]: 0.8 fold
B2M (216231_s_at) mRNA expression, Avg fold changes vs control [1]: 1.1 fold
BCL6 (215990_s_at) mRNA expression, Avg fold changes vs control [1]: 1.4 fold
BTN2A2 (205298_s_at) mRNA expression, Avg fold changes vs control [1]: 1.3 fold
CCR1 (205098_at) mRNA expression, Avg fold changes vs control [1]: 0.8 fold
CD2 (205831_at) mRNA expression, Avg fold changes vs control [1]: 1.1 fold
CD48 (204118_at) mRNA expression, Avg fold changes vs control [1]: 1.0 fold
CD53 (203416_at) mRNA expression, Avg fold changes vs control [1]: 1.0 fold
CDC2 (210559_s_at) mRNA expression, Avg fold changes vs control [1]: 1.0 fold
CYBB (203922_s_at) mRNA expression, Avg fold changes vs control [1]: 0.9 fold
EMP3 (203729_at) mRNA expression, Avg fold changes vs control [1]: 0.8 fold
FCER1G (204232_at) mRNA expression, Avg fold changes vs control [1]: 1.0 fold
FCGR2A (203561_at) mRNA expression, Avg fold changes vs control [1]: 0.8 fold
FCGRT (218831_s_at) mRNA expression, Avg fold changes vs control [1]: 1.0 fold
FKBP11 (219117_s_at) mRNA expression, Avg fold changes vs control [1]: 0.7 fold
FKBP11 (219118_at) mRNA expression, Avg fold changes vs control [1]: 0.8 fold
GP6 (220336_s_at) mRNA expression, Avg fold changes vs control [1]: 1.2 fold
HCLS1 (202957_at) mRNA expression, Avg fold changes vs control [1]: 1.0 fold
HEM1 (209734_at) mRNA expression, Avg fold changes vs control [1]: 1.0 fold
HLA-A (210514_x_at) mRNA expression, Avg fold changes vs control [1]: 1.2 fold
HLA-A (213932_x_at) mRNA expression, Avg fold changes vs control [1]: 1.2 fold
HLA-C (211799_x_at) mRNA expression, Avg fold changes vs control [1]: 1.5 fold
HLA-E (200904_at) mRNA expression, Avg fold changes vs control [1]: 1.0 fold
HLA-F (221978_at) mRNA expression, Avg fold changes vs control [1]: 1.4 fold
ICAM1 (202637_s_at) mRNA expression, Avg fold changes vs control [1]: 1.0 fold
IL13RA1 (210904_s_at) mRNA expression, Avg fold changes vs control [1]: 1.1 fold
PIK3CD (203879_at) mRNA expression, Avg fold changes vs control [1]: 1.1 fold
PRKCBP1 (209048_s_at) mRNA expression, Avg fold changes vs control [1]: 1.1 fold
PRKCBP1 (209049_s_at) mRNA expression, Avg fold changes vs control [1]: 0.9 fold
PTPN7 (204852_s_at) mRNA expression, Avg fold changes vs control [1]: 1.0 fold
SIGIRR (52940_at) mRNA expression, Avg fold changes vs control [1]: 0.9 fold
STAT1 (200887_s_at) mRNA expression, Avg fold changes vs control [1]: 1.3 fold
STAT1 (AFFX-HUMISGF3A/M97935_3_at) mRNA expression, Avg fold changes vs control [1]: 1.3 fold
STAT3 (208992_s_at) mRNA expression, Avg fold changes vs control [1]: 1.0 fold
TCIRG1 (204158_s_at) mRNA expression, Avg fold changes vs control [1]: 1.0 fold
THY1 (213869_x_at) mRNA expression, Avg fold changes vs control [1]: 0.9 fold
TMPO (209753_s_at) mRNA expression, Avg fold changes vs control [1]: 0.9 fold
TMSB10 (217733_s_at) mRNA expression, Avg fold changes vs control [1]: 1.1 fold
TNFRSF21 (218856_at) mRNA expression, Avg fold changes vs control [1]: 1.1 fold
TRB@ (210915_x_at) mRNA expression, Avg fold changes vs control [1]: 1.3 fold
TRB@ (213193_x_at) mRNA expression, Avg fold changes vs control [1]: 1.2 fold
209813_x_at avg fold change vs control [2]: 1.0 fold
AIF1 (209901_x_at) avg fold change vs control [2]: 0.7 fold
AIF1 (213095_x_at) avg fold change vs control [2]: 0.5 fold
B2M (201891_s_at) avg fold change vs control [2]: 1.0 fold
BCL3 (204908_s_at) avg fold change vs control [2]: 1.0 fold
BTN3A1 (207485_x_at) avg fold change vs control [2]: 2.1 fold
BTN3A3 (38241_at) avg fold change vs control [2]: 1.0 fold
BTN3A3 (204820_s_at) avg fold change vs control [2]: 1.1 fold
BTN3A3 (204821_at) avg fold change vs control [2]: 1.5 fold
C1QA (218232_at) avg fold change vs control [2]: 1.0 fold
C1QB (202953_at) avg fold change vs control [2]: 1.0 fold
C1R (212067_s_at) avg fold change vs control [2]: 1.0 fold
C1S (208747_s_at) avg fold change vs control [2]: 1.0 fold
C2 (203052_at) avg fold change vs control [2]: 1.1 fold
C4A (208451_s_at) avg fold change vs control [2]: 0.9 fold
CASP1 (209970_x_at) avg fold change vs control [2]: 1.1 fold
CASP1 (211367_s_at) avg fold change vs control [2]: 1.2 fold
CCL2 (216598_s_at) avg fold change vs control [2]: 1.6 fold
CCL3 (205114_s_at) avg fold change vs control [2]: 0.9 fold
CCL5 (1405_i_at) avg fold change vs control [2]: 0.9 fold
CCL8 (214038_at) avg fold change vs control [2]: 1.7 fold
CCL18 (209924_at) avg fold change vs control [2]: 2.3 fold
CCL19 (210072_at) avg fold change vs control [2]: 1.4 fold
CCNB2 (202705_at) avg fold change vs control [2]: 1.4 fold
CD3D (213539_at) avg fold change vs control [2]: 1.7 fold
CD8A (205758_at) avg fold change vs control [2]: 1.2 fold
CD14 (201743_at) avg fold change vs control [2]: 0.7 fold
CD74 (209619_at) avg fold change vs control [2]: 1.0 fold
CLU (208791_at) avg fold change vs control [2]: 1.0 fold
CMAH (210571_s_at) avg fold change vs control [2]: 1.1 fold
CTSC (201487_at) avg fold change vs control [2]: 1.1 fold
CTSK (202450_s_at) avg fold change vs control [2]: 1.2 fold
CTSS (202902_s_at) avg fold change vs control [2]: 1.1 fold
CX3CR1 (205898_at) avg fold change vs control [2]: 1.2 fold
CXCL9 (203915_at) avg fold change vs control [2]: 1.7 fold
CXCL10 (204533_at) avg fold change vs control [2]: 1.4 fold
CXCL11 (210163_at) avg fold change vs control [2]: 2.6 fold
CXCL11 (211122_s_at) avg fold change vs control [2]: 2.3 fold
CXCL12 (209687_at) avg fold change vs control [2]: 0.8 fold
CYBA (203028_s_at) avg fold change vs control [2]: 1.2 fold
CYBB (203923_s_at) avg fold change vs control [2]: 1.0 fold
CYP1B1 (202436_s_at) avg fold change vs control [2]: 1.3 fold
CYP3A5 (214234_s_at) avg fold change vs control [2]: 1.3 fold
CYP11B1 (214630_at) avg fold change vs control [2]: 1.0 fold
DUSP6 (208893_s_at) avg fold change vs control [2]: 0.9 fold
ECGF1 (204858_s_at) avg fold change vs control [2]: 1.7 fold
ECM1 (209365_s_at) avg fold change vs control [2]: 1.0 fold
F2RL1 (206429_at) avg fold change vs control [2]: 1.8 fold
F13A1 (203305_at) avg fold change vs control [2]: 1.1 fold
FCGR1A (214511_x_at) avg fold change vs control [2]: 1.0 fold
FCGR3A (204006_s_at) avg fold change vs control [2]: 1.0 fold
G1P2 (205483_s_at) avg fold change vs control [2]: 1.5 fold
GZMB (210164_at) avg fold change vs control [2]: 0.8 fold
HCA127 (220040_x_at) avg fold change vs control [2]: 0.9 fold
HCK (208018_s_at) avg fold change vs control [2]: 1.1 fold
HFE (210864_x_at) avg fold change vs control [2]: 1.3 fold
